Laboratory results: ChEMBL document CHEMBL1201862, “PubChem BioAssay data set” (2004)
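Where inhibition never reached the appropriate level, the endpoint shown equals the highest concentration tested. Otherwise, values were interpolated linearly from a five-concentration, 48-hour dose response in 96-well plates. At the GI50, growth is halved.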 The source made the active and inactive calls. No stated cut-off is given here; in the data, active = GI50 up to about 1.1 µM and inactive = higher.

Legend:
Assay in all cases: inhibition of tumour cell growth, NCI panel, 48 h
A498 = test system: A498
OVCAR-4 = test system: OVCAR-4
HCC 2998 = test system: HCC 2998
COLO 205 = test system: COLO 205
MDA-N = test system: MDA-N
NCI-H23 = test system: NCI-H23
OVCAR-3 = test system: OVCAR-3
K562 = test system: K562
MOLT-4 = test system: MOLT-4
SN12C = test system: SN12C
SF-295 = test system: SF-295
HCT-15 = test system: HCT-15
CAKI-1 = test system: CAKI-1
SK-MEL-28 = test system: SK-MEL-28
786-0 = test system: 786-0
U-251 = test system: U-251
M14 = test system: M14
UACC-62 = test system: UACC-62
NCI-H522 = test system: NCI-H522
HL-60 = test system: HL-60

SMILES	GI50 (A498)	GI50 (OVCAR-4)	GI50 (HCC 2998)	GI50 (COLO 205)	GI50 (MDA-N)	GI50 (NCI-H23)	GI50 (OVCAR-3)	GI50 (K562)	GI50 (MOLT-4)	GI50 (SN12C)	GI50 (SF-295)	GI50 (HCT-15) [µM]	GI50 (CAKI-1)	GI50 (SK-MEL-28)	GI50 (786-0)	GI50 (U-251)	GI50 (M14)	GI50 (UACC-62)	GI50 (NCI-H522)	GI50 (HL-60)
CSc1scc2c1/C(=N/NC(N)=O)CCC2	39.7 µM (inactive)	> 100 µM (inactive)	> 100 µM (inactive)	> 100 µM (inactive)	45.3 µM (inactive)	> 100 µM (inactive)	> 100 µM (inactive)	> 100 µM (inactive)	58.1 µM (inactive)	> 100 µM (inactive)	60.5 µM (inactive)	> 100	69.7 µM (inactive)	> 100 µM (inactive)	> 100 µM (inactive)	> 100 µM (inactive)	> 100 µM (inactive)	> 100 µM (inactive)		
NCCC(=O)N[C@@H](Cc1cc(O)c(O)c(SCC(NC(=O)CC[C@H](N)C(=O)O)C(=O)NCC(=O)O)c1)C(=O)O (stereo partly drawn)	> 50 µM (inactive)	> 50 µM (inactive)	> 50 µM (inactive)	> 50 µM (inactive)	> 50 µM (inactive)	> 50 µM (inactive)	> 50 µM (inactive)	> 50 µM (inactive)	> 50 µM (inactive)	> 50 µM (inactive)	> 50 µM (inactive)	> 50	> 50 µM (inactive)	> 50 µM (inactive)	> 50 µM (inactive)	> 50 µM (inactive)	> 50 µM (inactive)	> 50 µM (inactive)	> 50 µM (inactive)	
COC(=O)C1C=CN(N(C)C)C2=C1C(=O)c1c(O)cccc1C2=O (stereo not drawn)	2.81 µM (inactive)	2.17 µM (inactive)	1.93 µM (inactive)	1.5 µM (inactive)	0.422 µM (active)	1.63 µM (inactive)	0.625 µM (active)	3.09 µM (inactive)	2.56 µM (inactive)	1.73 µM (inactive)	1.65 µM (inactive)	1.51	2.47 µM (inactive)	1.94 µM (inactive)	2.62 µM (inactive)	3.29 µM (inactive)	1.69 µM (inactive)	1.04 µM (active)	2.48 µM (inactive)	
Fc1ccc(C(OCCN2CCC3CCC(C2)N3C/C=C/c2ccco2)c2ccc(F)cc2)cc1 (stereo not drawn)	11.2 µM (inactive)	10.2 µM (inactive)	4.94 µM (inactive)	1.69 µM (inactive)	12.4 µM (inactive)	11.3 µM (inactive)	11.4 µM (inactive)	3.21 µM (inactive)	4.78 µM (inactive)	11.4 µM (inactive)	13 µM (inactive)	5.09	12.8 µM (inactive)	6.46 µM (inactive)	9.4 µM (inactive)	8.59 µM (inactive)	5.5 µM (inactive)	13.8 µM (inactive)	7.23 µM (inactive)	
COc1cc([C@@H]2c3cc4c(cc3[C@@H](OC3OC5COC(C)OC5C(OC(=O)CN5CCN(C)CC5)C3OC(=O)CN3CCN(C)CC3)C3COC(=O)[C@@H]32)OCO4)cc(OC)c1OC(=O)CN1CCN(C)CC1 (stereo partly drawn)		> 100 µM (inactive)	32.1 µM (inactive)	> 100 µM (inactive)	> 100 µM (inactive)	22.3 µM (inactive)	> 100 µM (inactive)	67.5 µM (inactive)	2.49 µM (inactive)	44.1 µM (inactive)	38.1 µM (inactive)	> 100	37.7 µM (inactive)		21.9 µM (inactive)	26.9 µM (inactive)	55.8 µM (inactive)	> 100 µM (inactive)	27.2 µM (inactive)	11.5 µM (inactive)
COc1cc(/C=C2\S/C(=N/Nc3nc(-c4ccc(Br)cc4)cs3)NC2=O)cc(OC)c1OC		17.8 µM (inactive)	16.3 µM (inactive)	26.8 µM (inactive)	17.4 µM (inactive)	5.11 µM (inactive)	13.6 µM (inactive)		3.78 µM (inactive)	28.6 µM (inactive)	12.4 µM (inactive)	11.3	18.2 µM (inactive)	10.4 µM (inactive)	9.44 µM (inactive)	2.99 µM (inactive)	15.6 µM (inactive)	11.1 µM (inactive)	12.5 µM (inactive)	2.08 µM (inactive)
CC1=NN(C(=O)CC(=O)Nc2cccc(Cl)c2)C(=O)C1/N=N\c1ccc(S(=O)(=O)c2ccc(/N=N/C3C(=O)N(C(=O)CC(=O)Nc4cccc(Cl)c4)N=C3C)cc2)cc1 (stereo not drawn)		> 100 µM (inactive)	> 100 µM (inactive)	> 100 µM (inactive)	> 100 µM (inactive)	> 100 µM (inactive)	> 100 µM (inactive)	> 100 µM (inactive)	> 100 µM (inactive)	> 100 µM (inactive)	> 100 µM (inactive)	> 100	> 100 µM (inactive)	> 100 µM (inactive)	> 100 µM (inactive)	29.4 µM (inactive)	> 100 µM (inactive)	> 100 µM (inactive)	> 100 µM (inactive)	> 100 µM (inactive)
CCOC(=O)c1cnc2oc(/C=N/N3CC(CN4CCOCC4)OC3=O)cc2c1O (stereo not drawn)		> 100 µM (inactive)	> 100 µM (inactive)	> 100 µM (inactive)	> 100 µM (inactive)	> 100 µM (inactive)	> 100 µM (inactive)	> 100 µM (inactive)	> 100 µM (inactive)	> 100 µM (inactive)	> 100 µM (inactive)	> 100	> 100 µM (inactive)	> 100 µM (inactive)	> 100 µM (inactive)	> 100 µM (inactive)	> 100 µM (inactive)	> 100 µM (inactive)		> 100 µM (inactive)
CCOC(=O)/C(=C\c1ccc(CO)o1)P(=O)(OCC)OCC	55.3 µM (inactive)	19.9 µM (inactive)	> 100 µM (inactive)	23 µM (inactive)	22.8 µM (inactive)	22.3 µM (inactive)	18.9 µM (inactive)		56.8 µM (inactive)	30.5 µM (inactive)	> 100 µM (inactive)	18.4	55.7 µM (inactive)	30.7 µM (inactive)	19.7 µM (inactive)	42.4 µM (inactive)	31.9 µM (inactive)	38.7 µM (inactive)	3.88 µM (inactive)	
CCOC(=O)C1(C)CCc2sc(N)c(C#N)c21 (stereo not drawn)	> 100 µM (inactive)		> 100 µM (inactive)	> 100 µM (inactive)	> 100 µM (inactive)	> 100 µM (inactive)		> 100 µM (inactive)	> 100 µM (inactive)	> 100 µM (inactive)		> 100		> 100 µM (inactive)	> 100 µM (inactive)	> 100 µM (inactive)	> 100 µM (inactive)	> 100 µM (inactive)		> 100 µM (inactive)
CC#CC(O)(C(=O)OCCCN(C)C)C1CCCCC1 (stereo not drawn)	> 100 µM (inactive)		> 100 µM (inactive)	> 100 µM (inactive)	> 100 µM (inactive)	> 100 µM (inactive)	> 100 µM (inactive)	> 100 µM (inactive)	> 100 µM (inactive)	> 100 µM (inactive)	> 100 µM (inactive)	> 100		> 100 µM (inactive)	> 100 µM (inactive)	> 100 µM (inactive)	> 100 µM (inactive)	> 100 µM (inactive)		> 100 µM (inactive)
